# Numbers after ± are expanded uncertainties.
# Settings: 298.15 K; 101.33 kPa; Liquid; Vibrating tube method
row,mass density,SMILES
1,874 ± 20 kg/m3,c1ccccc1 [benzene]
2,779 ± 20 kg/m3,C1CCCCC1 [cyclohexane]
3,659 ± 20 kg/m3,CCCCCC [hexane]
4,798 ± 20 kg/m3,CC(C)O [propan-2-ol]
